# Assay results published in patent US20260200849A1, “CATIONIC LIPIDS AND PREPARATION METHOD THEREOF” (RiboX Therapeutics HK Limited, priority 2024, published 2026).
# Where “and” joins values, the source holds several entries; their conditions need not be identical. Identical values can stand only once.
# Tests used:
# [1] = LNP size and polydispersity index (PDI) by dynamic light scattering (Zetasizer); type: physicochemical; conditions: for Size (nm): Formulation No. 010 (Ionizable lipid:DSPC:cholesterol:DSPE-PEG2000 = 38:30:30:2, N/P 6), RNA No. 331
# Experimental: (§1) The LNP size and polydispersity index (PDI), determined by dynamic light scattering (DLS), and zeta potential were measured by a Zetasizer machine (Malvern). RNA concentration and encapsulation efficacy (EE %) were analyzed by the Quant-IT Ribogreen kit by calculating the percentage encapsulation at 100%—(RNA-LNPs/RNA-LNPs with Triton X-100).
# [2] = RNA encapsulation efficacy (EE %) by Quant-IT Ribogreen kit; type: physicochemical; conditions: LNP
# Experimental: as §1
# Hep G2 cells [3] = experiment: In vitro expression: luciferase activity in Hep G2 cells transfected with RNA-LNPs; type: cell-based; conditions: 100 ng/mL RNA-LNPs, 72 hours post transfection
# Experimental: 2E5 Hep G2 cells were transfected with 100 ng/mL of RNA-LNPs encoding for firefly-luciferase. At 72 hours post transfection, the cells were washed and lysed. The luciferase expression (2-well repeat) was determined in the cell lysates with the luciferase assay reagent kit (Promega), according to the kit protocol, luciferase activity was measured by a luminometer.
# Hep G2 cells [4] = experiment: In vitro toxicity: Hep G2 cell viability by CellTiter-Glo; type: cell-based; conditions: 72 hours post transfection, cell only = 100%
# Experimental: 2E5 Hep G2 cells were transfected with 1 μg/mL RNA-LNPs. At 72 hours post transfection, cell viability (2-well repeat) was determined with the CellTiter-Glo® reagent kit, according to the kit protocol, measured by a luminometer. Cell only as control (100%).
# The cell viability was calculated according to the following formula: […]
# Balb/c mice = experiment: In vivo expression by IV, 0.05 mg/kg luciferase RNA-LNPs, IVIS luminescence; conditions: Formulation No. 010, RNA No. 331, female Balb/c mice, 0.05 mg*kg−1 intravenous; for Whole body at 24 h (p/s) (Mean): 24 hours post injection; for Whole body at 72 h (p/s) (Mean): 72 hours post injection
# In short: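 Female Balb/c mice (7-8 weeks, N=3) received 0.05 mg*kg−1 firefly-luciferase RNA-LNPs IV. Luciferin (15 mg/ml) was given IP at 24 and 72 h post-dose for IVIS whole-body luminescence. A second run imaged whole body, liver and spleen at 24 h only.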
# C57BL/6J mice = experiment: In vivo expression by ID, whole-body/injection site skin/lymph node luminescence; conditions: intradermal 0.15 mg/kg, 72 h post injection, female C57BL/6J mice N=3, Formulation 001, RNA 331
# Experimental: 7-8 week old, female C57BL/6J mice (N=3) were injected with 0.15 mg*kg−1 of RNA-LNPs encoding for firefly-luciferase by intradermal injection. At 72-hours post injection, animals were intraperitoneally injected with 15 mg/mi of Luciferin substrate and whole-body/injection site skin/lymph node luminescence were determined by a bioluminescent in vivo imaging system (IVIS).
# injection site skin = experiment: In vivo tolerability after intradermal injection: H&E staining of injection site skin; design: species or system C57BL/6J mice; key to Infiltration, mononuclear cells, dermis/subcutaneous, focal, Grade / Edema, subcutaneous, focal, Grade / Erosion, focal, Grade / Skin, Grade: 1==minimal; 2=mild; 3=moderate; 4=marked; 5=severe; N=Normal; NA=Not applicable; —=No data; conditions: intradermal 0.15 mg/kg, 72 h, Formulation 001, RNA 331; for Edema, subcutaneous, focal, Grade / Erosion, focal, Grade / Infiltration, mononuclear cells, dermis/subcutaneous, focal, Grade: per animal; for Total score: sum of lesion grades of the group (N=3)
# Experimental: 7-8 week old, female C57BL/6J mice (N=3) were injected with 0.15 mg*kg−1 of RNA-LNIPs encoding for firefly-luciferase by intradermal injection. At 72-hours post injection, injection site skin from each animal was collected in 10% formalin, for H&E staining. PBS group (N=2) as control. (Note: 1==minimal, 2=mild, 3=moderate, 4=marked, 5=severe; N=Normal; NA=Not applicable; —=No data)
# hEPO = experiment: In vivo expression by IM: serum hEPO concentration by ELISA; conditions: IM 0.075 mg/kg, male C57BL/6J mice N=3, Formulation 001, RNA 019
# Experimental: Circular RNA payloads were suspended in 25 mM Acetate Buffer (pH 4.5). To form LNPs, three volumes of human erythropoietin (hEPO) encoding cirRNA (SEQ ID NO:2), were mixed with one volume of lipids in ethanol solution by microfluidic mixing with the INano™ L+ (Micro& Nano) at a flow rate of 12 ml/min. The molar ratio of ionizable lipid to ribonucleotide was 6. After encapsulation, the particles were dialyzed twice against PBS. The LNP formulation was concentrated to targeted RNA concentration by Amicon® Ultra Centrifugal Filter (100 kDa MWCO) and filtered by a 0.65/0.22 um sterile filter.
# 6-8 week old, male C57BL/6J mice (N=3) were injected with 0.075 mg*kg−1 of RNA-LNPs encoding for hEPO by intramuscular injection. At 2-/6-/24-/48-/72 h-hours post injection, about 80 μL blood will be harvested and immediately added to the procoagulant containing tube. Stand for 30 min at room temperature and then centrifuged at 2500 g×10 min to obtain serum. About 30 μL serum samples will be aliquoted for hEPO concentration detection by ELISA kit (STEMCELL Technologies).
# [5] = Formulation No. 001, RNA No. 019 (hEPO)
# [6] = Formulation No. 001, RNA No. 331
# [7] = Formulation No. 010, RNA No. 331
# [8] = Formulation No. 010, RNA No. 331 (firefly-luciferase)
# [9] = 1 μg/mL RNA-LNPs, Formulation 001, RNA 331
# [10] = Formulation No. 010, RNA No. 331, 1 μg/mL RNA-LNPs
Compound,"PDI [1, 5]","PDI [1, 6]","Size [1, 6] [nm]",Size (nm) [1] [nm],"PDI [1, 7]","EE (%) [2, 6] [%]","EE (%) [2, 7] [%]","In vitro Expression (Mean) (Hep G2 cells [3]; Formulation 001, RNA 331)",In vitro Expression (Mean) (Hep G2 cells [3]; [8]),In vitro cell viability (%) (Mean) (Hep G2 cells [4]; [9]),In vitro cell viability (%) (Mean) (Hep G2 cells [4]; [10]),Whole body at 24 h (p/s) (Mean) (Balb/c mice),Whole body at 72 h (p/s) (Mean) (Balb/c mice),Injection site Skin (p/s) (C57BL/6J mice),Lymph node (p/s) (C57BL/6J mice),Whole body (p/s) (C57BL/6J mice),"Edema, subcutaneous, focal, Grade (injection site skin)","Erosion, focal, Grade (injection site skin)","Infiltration, mononuclear cells, dermis/subcutaneous, focal, Grade (injection site skin)",Total score (injection site skin),other results
CCCCC/C=C\C/C=C\CCCCCCCC(=O)NC(COC(=O)NCCN1CCCCCC1)C(=O)OCCCCCCCC(=O)OC(CCCCCCCC)CCCCCCCC (stereo not shown) [Lipid 550],0.04,0.15,72.66,67.81,0.13,94.50,94.88,1.89E+05,5.74E+05,67.09,87.47,2.36E+08,4.96E+07,1.33E+07,2.06E+06,3.09E+07,1,1 and — (2×),1,7,"Size [1, 5]: 66.58 nm; EE (%) [2, 5]: 92.20%; hEPO conc. (ng/mL) at 2 h (hEPO): 1.56 ng/mL; hEPO conc. (ng/mL) at 6 h (hEPO): 6.19 ng/mL; hEPO conc. (ng/mL) at 24 h (hEPO): 9.69 ng/mL; hEPO conc. (ng/mL) at 48 h (hEPO): 2.38 ng/mL; hEPO conc. (ng/mL) at 72 h (hEPO): 0.67 ng/mL"
CCCCC/C=C\C/C=C\CCCCCCCC(=O)N[C@@H](COC(=O)NCCN1CCCCC1)C(=O)OCCCCCCCC(=O)OC(CCCCCCCC)CCCCCCCC [Lipid 601],0.04,0.09,80.16,62.33,0.08,95.30,95.98,9.94E+05,6.24E+05,81.18,98.14,3.82E+08,8.02E+07,9.69E+06,1.89E+06,5.92E+07,1,—,1,6,"Size [1, 5]: 73.40 nm; EE (%) [2, 5]: 90.47%; hEPO conc. (ng/mL) at 2 h (hEPO): 1.12 ng/mL; hEPO conc. (ng/mL) at 6 h (hEPO): 7.35 ng/mL; hEPO conc. (ng/mL) at 24 h (hEPO): 12.74 ng/mL; hEPO conc. (ng/mL) at 48 h (hEPO): 3.29 ng/mL; hEPO conc. (ng/mL) at 72 h (hEPO): 1.06 ng/mL"
CCCCC/C=C\C/C=C\CCCCCCCC(=O)N[C@@H](COC(=O)NCCN1CCCCCC1)C(=O)OCCCCCCCC(=O)OC(CCCCCCCC)CCCCCCCC [Lipid 602],0.04,0.08,76.34,64.73,0.16,97.94,97.13,5.82E+05,6.30E+05,82.68,84.17,2.66E+08,1.24E+08,3.02E+07,3.01E+06,1.40E+08,1 (2×) and 2,—,1,7,"Size [1, 5]: 67.47 nm; EE (%) [2, 5]: 95.79%; hEPO conc. (ng/mL) at 2 h (hEPO): 1.02 ng/mL; hEPO conc. (ng/mL) at 6 h (hEPO): 5.02 ng/mL; hEPO conc. (ng/mL) at 24 h (hEPO): 7.65 ng/mL; hEPO conc. (ng/mL) at 48 h (hEPO): 2.44 ng/mL; hEPO conc. (ng/mL) at 72 h (hEPO): 0.76 ng/mL"
CCCCC/C=C\C/C=C\CCCCCCCC(=O)N[C@H](COC(=O)NCCN1CCCCCC1)C(=O)OCCCCCC(=O)OC(CCCCCCCC)CCCCCCCC [Lipid 730],,0.05,76.53,59.50,0.09,97.08,96.20,5.98E+05,7.72E+05,75.29,98.64,2.24E+08,8.49E+07,1.63E+07,3.33E+06,2.81E+07,1,—,1,6,
